Laboratory results published in patent US6951870B2, “Coumarin derivatives with COMT inhibiting activity” (Orion Corporation, priority 2000, dated 2005).
pIC50: −log10 of the molar value.

Target: T1, S-COMT enzyme (Homo sapiens, UniProt P21964)
T1 sequence (P21964 1-221 isoform P21964-2): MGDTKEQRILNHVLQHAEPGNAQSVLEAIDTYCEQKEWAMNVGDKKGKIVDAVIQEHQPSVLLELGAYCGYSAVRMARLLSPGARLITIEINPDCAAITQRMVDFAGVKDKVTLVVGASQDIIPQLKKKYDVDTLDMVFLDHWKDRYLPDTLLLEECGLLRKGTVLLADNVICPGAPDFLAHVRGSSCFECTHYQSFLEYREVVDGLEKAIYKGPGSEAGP
Experiment: Determination of COMT activity (IC50)
Type: biochemical
Conditions: S-COMT about 30 nM, 3 mM dopamine substrate, 0.05 mM AdoMet, 5 mM MgCl2, pH 7.4, 37° C., 15 min
Protocol: Experiment I: Determination of COMT Activity (IC50)
The determination of IC50 was performed by mesuring the COMT activity in a test sample which contained S-COMT enzyme (about 30 nM), 3 mM dopamine (as the substrate of COMT), 5 mM magnesium chloride, 0.05 mM S-adenosyl-L-methionine (AdoMet) and a test compound of the invention at various concentrations in 0.1 M phosphate buffer, pH 7.4, at 37° C.
The reaction in the test sample was initiated by adding the dopamine substrate to the sample mixture and, after incubation for 15 min at 37° C., the reaction was stopped with 4 M perchloric acid and stabilized further 10 min in ice bath. Thereafter the precipitated proteins were removed by centrifugation (4000×G for 10 min). The activity of COMT enzyme was measured by determining the concentration of the reaction products, 3-methyldopamine and 4-methyidopamine, by HPLC. The results were calibrated with 3-methyidopamine standards. See also T.Lotta et al., Biochemistry, vol.34(13), 1995, p.4204, T.Lotta et al. The IC50 value is the concentration of the test compound which causes a 50% decrease in COMT activity.

Q: How did the pIC50 turn out when `O=c1oc2c([N+](=O)[O-])c(O)c(O)cc2cc1-c1ccccc1` [Example 6(b), 6,7-Dihydroxy-8-nitro-3-phenyl-chromen-2-one] was run?
A: The pIC50 was 7.52.

Q: `O=C(c1ccccc1)c1cc2c([N+](=O)[O-])c(O)c(O)cc2oc1=O` [Example 7, 3-Benzoyl-6,7-dihydroxy-5-nitro-chromen-2-one] was tested. Which pIC50 did it give?
A: The pIC50 was 7.52.

Q: With `O=c1oc2cc(O)c(O)c([N+](=O)[O-])c2c2c1CCCC2` [Example 8, 2,3-Dihydroxy-1-nitro-7,8,9,10-tetrahydro-benzo[c]chromen-6-one] as the compound, how does the pIC50 read?
A: The pIC50 was 7.30.

Q: `O=C(O)c1cc2c([N+](=O)[O-])c(O)c(O)cc2oc1=O` [Example 9(c), 6,7-Dihydroxy-5-nitro-2-oxo-2H-chromene-3-carboxylic acid] was tested. Which pIC50 did it give?
A: Its pIC50 is 7.70.

Q: How did the pIC50 turn out when `O=C(O)c1cc2cc(O)c(O)c([N+](=O)[O-])c2oc1=O` [Example 10(d), 6,7-Dihydroxy-8-nitro-2-oxo-2H-chromene-3-carboxylic acid] was run?
A: Its pIC50 is 7.46.

Q: With `O=C(O)Cc1cc2c([N+](=O)[O-])c(O)c(O)cc2oc1=O` [Example 11(c), (6,7-Dihydroxy-5-nitro-2-oxo-2H-chromen-3-yl)-acetic acid] as the compound, how does the pIC50 read?
A: Its pIC50 is 8.00.

Q: `O=c1oc2cc(O)c(O)c([N+](=O)[O-])c2cc1-c1nnn[nH]1` [Example 12(b), 6,7-Dihydroxy-5-nitro-3-(1H-tetrazol-5-yl)-chromen-2-one] was tested. Which pIC50 did it give?
A: Its pIC50 is 8.00.

Q: With `Cc1c(CC(=O)O)c(=O)oc2cc(O)c(O)c([N+](=O)[O-])c12` [Example 13(c), (6,7-Dihydroxy-4-methyl-5-nitro-2-oxo-2H-chromen-3-yl)-acetic acid] as the compound, how does the pIC50 read?
A: Its pIC50 is 7.22.
